Assay results from PubChem BioAssay AID330 (DTP/NCI, 2004).
“And” between values parts separate entries of the source, which are not always exact repeats. Equal values may be shown once. Toxic doses and inconclusive results are not listed. Rule for the calls: active = survival T/C of 150% or more; inactive = T/C below 125% in these data.

Test system: P388 leukemia ip, CD2F1 mice, survival T/C
Assay: NCI In Vivo Anticancer Drug Screen. Data for tumor model P388 Leukemia (intraperitoneal) in CD2F1 (CDF1) mice
Details: endpoint: median survival time, higher = longer survival
In short: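 Mice carrying the transplanted tumor received test compound or vehicle. Survival was recorded in each group, and the value is the treated-group measurement divided by that of the vehicle-treated control group.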

[1] = dose: 50.0 mg/kg/injection, schedule: Q01DX009 (ip), vehicle: Klucel (hydroxypropylcellulose) (HPC)
[2] = dose: 100.0 mg/kg/injection, schedule: Q01DX009 (ip), vehicle: Klucel (hydroxypropylcellulose) (HPC)
[3] = dose: 15.0 mg/kg/injection, schedule: Q01DX005 (ip), vehicle: saline with Tween-80
[4] = dose: 30.0 mg/kg/injection, schedule: Q01DX005 (ip), vehicle: saline with Tween-80
[5] = dose: 60.0 mg/kg/injection, schedule: Q01DX005 (ip), vehicle: saline with Tween-80
[6] = dose: 60.0 mg/kg/injection, schedule: Q01DX005 (ip), vehicle: Klucel (hydroxypropylcellulose) (HPC)
[7] = dose: 120.0 mg/kg/injection, schedule: Q01DX005 (ip), vehicle: Klucel (hydroxypropylcellulose) (HPC)
[8] = dose: 12.5 mg/kg/injection, schedule: Q01DX001 (ip), vehicle: Klucel (hydroxypropylcellulose) (HPC)
[9] = dose: 25.0 mg/kg/injection, schedule: Q01DX001 (ip), vehicle: Klucel (hydroxypropylcellulose) (HPC)
[10] = dose: 50.0 mg/kg/injection, schedule: Q01DX001 (ip), vehicle: Klucel (hydroxypropylcellulose) (HPC)
[11] = dose: 100.0 mg/kg/injection, schedule: Q04DX003 (ip), vehicle: saline with Tween-80
[12] = dose: 200.0 mg/kg/injection, schedule: Q04DX003 (ip), vehicle: saline with Tween-80
[13] = dose: 400.0 mg/kg/injection, schedule: Q04DX003 (ip), vehicle: saline with Tween-80
[14] = dose: 50.0 mg/kg/injection, schedule: Q01DX009 (ip), vehicle: saline
[15] = dose: 100.0 mg/kg/injection, schedule: Q01DX009 (ip), vehicle: saline
[16] = dose: 25.0 mg/kg/injection, schedule: Q01DX009 (ip), vehicle: saline
[17] = dose: 100.0 mg/kg/injection, schedule: Q01DX005 (ip), vehicle: saline with Tween-80
[18] = dose: 200.0 mg/kg/injection, schedule: Q01DX005 (ip), vehicle: saline with Tween-80
[19] = dose: 120.0 mg/kg/injection, schedule: Q01DX005 (ip), vehicle: saline with Tween-80
[20] = dose: 240.0 mg/kg/injection, schedule: Q01DX005 (ip), vehicle: saline with Tween-80

Measured: T/C

C=CCSc1ccc(Cl)cc1[N+](=O)[O-]
inactive: [1] 101 % of control | [2] 100 % of control | dose: 200.0 mg/kg/injection, schedule: Q01DX009 (ip), vehicle: Klucel (hydroxypropylcellulose) (HPC) 100 % of control

N#CNc1c2ccccc2nc2ccccc12
inactive: [3] 101 % of control | [4] 97 % of control | [5] 99 % of control and 100 % of control

COc1ccc(/C(O)=C/c2nc3ccc(Cl)cc3[nH]c2=O)cc1
inactive: [6] 101 % of control | [7] 99 % of control | dose: 240.0 mg/kg/injection, schedule: Q01DX005 (ip), vehicle: Klucel (hydroxypropylcellulose) (HPC) 91 % of control

Cc1ccc(S(=O)(=O)NC(=O)Nc2ccccc2SC2CCc3ccccc32)cc1 (centres undefined)
inactive: dose: 50.0 mg/kg/injection, schedule: Q01DX005 (ip), vehicle: Klucel (hydroxypropylcellulose) (HPC) 105 % of control | dose: 100.0 mg/kg/injection, schedule: Q01DX005 (ip), vehicle: Klucel (hydroxypropylcellulose) (HPC) 108 % of control | dose: 200.0 mg/kg/injection, schedule: Q01DX005 (ip), vehicle: Klucel (hydroxypropylcellulose) (HPC) 102 % of control

CN(C)N=Nc1cn[nH]c1C(N)=O
inactive: dose: 50.0 mg/kg/injection, schedule: Q04DX003 (ip), vehicle: Klucel (hydroxypropylcellulose) (HPC) 109 % of control
active: dose: 200.0 mg/kg/injection, schedule: Q04DX003 (ip), vehicle: Klucel (hydroxypropylcellulose) (HPC) 161 % of control and 163 % of control

CC(=O)NC(CCl)(OC(C)=O)C(=O)OCc1ccc([N+](=O)[O-])cc1 (centres undefined)
inactive: [8] 102 % of control | [9] 108 % of control | [10] 100 % of control | [11] 106 % of control | [12] 120 % of control | [13] 100 % of control

CC1(C)NC(=S)N(O)C1(C)C
inactive: [14] 111 % of control | [15] 98 % of control

CC(C)(C)N1CC1CN (centres undefined)
inactive: [16] 100 % of control | [14] 107 % of control | [15] 105 % of control

Fc1cccc2c(C#Cc3ccccc3)c3ccccc3c(C#Cc3ccccc3)c12
inactive: dose: 1.5 mg/kg/injection, schedule: Q01DX005 (ip), vehicle: saline with Tween-80 100 % of control | dose: 3.0 mg/kg/injection, schedule: Q01DX005 (ip), vehicle: saline with Tween-80 100 % of control | dose: 6.0 mg/kg/injection, schedule: Q01DX005 (ip), vehicle: saline with Tween-80 97 % of control | dose: 25.0 mg/kg/injection, schedule: Q01DX005 (ip), vehicle: saline with Tween-80 92 % of control | [17] 94 % of control | [18] 87 % of control

CN1c2ccc(Br)c[c]2[Sn]([CH3])([CH3])[c]2cc(Br)ccc21
inactive: [5] 99 % of control | [19] 100 % of control | [20] 104 % of control

CC(=O)Oc1cc2c3c(c1)CCCN3CCC2
inactive: dose: 1.25 mg/kg/injection, schedule: Q04DX003 (ip), vehicle: saline with Tween-80 91 % of control | dose: 2.5 mg/kg/injection, schedule: Q04DX003 (ip), vehicle: saline with Tween-80 104 % of control | dose: 5.0 mg/kg/injection, schedule: Q04DX003 (ip), vehicle: saline with Tween-80 100 % of control

COC(=O)N1c2ccccc2N(C(=O)OC)c2c1oc1ccccc1c2=O
inactive: [5] 92 % of control | [19] 91 % of control | [20] 101 % of control

O=C(NCc1ccc(Cl)cc1)OCc1c2ccccc2cc2ccccc12
inactive: [1] 95 % of control | [2] 93 % of control

C[N+](C)(C)CCC(=O)c1ccco1
inactive: dose: 6.25 mg/kg/injection, schedule: Q01DX009 (ip), vehicle: saline 117 % of control | dose: 12.5 mg/kg/injection, schedule: Q01DX009 (ip), vehicle: saline 117 % of control | dose: 25.0 mg/kg/injection, schedule: Q01DX009 (ip), vehicle: saline with Tween-80 111 % of control | [16] 106 % of control

c1ccc(N=c2nc(Nc3ccccc3)ss2)cc1
inactive: dose: 50.0 mg/kg/injection, schedule: Q01DX005 (ip), vehicle: saline with Tween-80 94 % of control | [17] 86 % of control | [18] 90 % of control

COC1=CC(O)(CC(N)=O)c2ccccc2C1=O (centres undefined)
inactive: dose: 3.13 mg/kg/injection, schedule: Q01DX009 (ip), vehicle: distilled water + Tween-80 99 % of control | dose: 6.25 mg/kg/injection, schedule: Q01DX009 (ip), vehicle: distilled water + Tween-80 100 % of control | dose: 12.5 mg/kg/injection, schedule: Q01DX009 (ip), vehicle: distilled water + Tween-80 98 % of control | dose: 25.0 mg/kg/injection, schedule: Q01DX009 (ip), vehicle: distilled water + Tween-80 102 % of control | dose: 50.0 mg/kg/injection, schedule: Q01DX009 (ip), vehicle: distilled water + Tween-80 92 % of control | dose: 100.0 mg/kg/injection, schedule: Q01DX009 (ip), vehicle: distilled water + Tween-80 92 % of control

CCC1COc2nc(=O)c(C=NCCCN(C)C)c(N)n21 (centres undefined)
inactive: dose: 60.0 mg/kg/injection, schedule: Q01DX005 (ip), vehicle: saline 100 % of control | dose: 120.0 mg/kg/injection, schedule: Q01DX005 (ip), vehicle: saline 105 % of control | dose: 240.0 mg/kg/injection, schedule: Q01DX005 (ip), vehicle: saline 99 % of control

Nc1ncnc(Nc2ccc(S(N)(=O)=O)cc2)n1
inactive: dose: 5.0 mg/kg/injection, schedule: Q01DX009 (ip), vehicle: Klucel (hydroxypropylcellulose) (HPC) 100 % of control | dose: 10.0 mg/kg/injection, schedule: Q01DX009 (ip), vehicle: Klucel (hydroxypropylcellulose) (HPC) 97 % of control | dose: 20.0 mg/kg/injection, schedule: Q01DX009 (ip), vehicle: Klucel (hydroxypropylcellulose) (HPC) 100 % of control

O=C(NC(=O)c1c(F)cccc1F)Nc1cccc(Oc2ncc(Cl)cn2)c1
inactive: [3] 111 % of control | [4] 96 % of control | [5] 94 % of control and 95 % of control

C=CC#CC#Cc1ccc(C#CC)s1
inactive: dose: 12.5 mg/kg/injection, schedule: Q01DX009 (ip), vehicle: Klucel (hydroxypropylcellulose) (HPC) 96 % of control | dose: 25.0 mg/kg/injection, schedule: Q01DX009 (ip), vehicle: Klucel (hydroxypropylcellulose) (HPC) 100 % of control | [1] 105 % of control | [2] 104 % of control

CC(=O)OCC1OC(OC2=C(CC=C(C)C)C(=O)c3ccccc3C2=O)C(OC(C)=O)C(OC(C)=O)C1OC(C)=O (centres undefined)
inactive: dose: 25.0 mg/kg/injection, schedule: Q04DX003 (ip), vehicle: saline with Tween-80 100 % of control | dose: 50.0 mg/kg/injection, schedule: Q04DX003 (ip), vehicle: saline with Tween-80 102 % of control | [11] 94 % of control | [12] 114 % of control

Cc1ccc(S(=O)(=O)/N=S(/C)c2ccccc2)cc1 (centres undefined)
inactive: [11] 110 % of control | [12] 100 % of control | [13] 120 % of control

c1ccc2c(SCCCCCCSc3c4ccccc4nc4ccccc34)c3ccccc3nc2c1
inactive: [6] 90 % of control | [7] 86 % of control

C[N+](C)(C)/N=C(/c1ccccc1)C1CCCCC1
inactive: [8] 91 % of control | [9] 100 % of control | [10] 97 % of control

CCC(=O)Oc1ccc(N=Nc2ccc(O)c(/C=N\NC(=O)CNc3ccccc3)c2)cc1
inactive: dose: 100.0 mg/kg/injection, schedule: Q01DX001 (ip), vehicle: saline with Tween-80 88 % of control | dose: 200.0 mg/kg/injection, schedule: Q01DX001 (ip), vehicle: saline with Tween-80 86 % of control | dose: 400.0 mg/kg/injection, schedule: Q01DX001 (ip), vehicle: saline with Tween-80 100 % of control

C=C(C)CCOS(=O)(=O)c1ccc(C)cc1
inactive: dose: 50.0 mg/kg/injection, schedule: Q01DX009 (ip), vehicle: saline with Tween-80 102 % of control | dose: 100.0 mg/kg/injection, schedule: Q01DX009 (ip), vehicle: saline with Tween-80 110 % of control | dose: 200.0 mg/kg/injection, schedule: Q01DX009 (ip), vehicle: saline with Tween-80 90 % of control

Cc1cc(OC(=O)c2c(-c3ccccc3)noc2C)n(-c2ccc(NC(=O)c3c(-c4ccccc4)noc3C)cc2)n1
inactive: [14] 96 % of control | [15] 100 % of control | dose: 200.0 mg/kg/injection, schedule: Q01DX009 (ip), vehicle: saline 101 % of control
